Experimental data from patent US10426850B2, “Collagen mimetic peptides for targeting collagen strands for in vitro and in vivo imaging and therapeutic use” (The Johns Hopkins University, priority 2011, dated 2019).

Tested on: whole cell lysate of human umbilical vein endothelial cells (HUVEC)
Assay: SDS-PAGE staining by heat activated fluorescent CMP, cell lysate
Assay type: binding
Conditions: 6 μM
Protocol: To prepare MMP-1 cleaved collagen chain fragments, proMMP-1 (1 μg) was activated by p-aminophenylmercuric acetate (1.1 mM) in 132.5 μL of TNC buffer (50 mM Tris-HCl, 0.15 M NaCl, 5 mM CaCl2, 0.02% NaN3, pH 7.5) at 37° C. for 3 hr, after which type I collagen (62.6 μg) was added to the activated MMP-1 solution and incubated at room temperature for at least 3 days. To obtain the cell lysate, confluent HUVECs cultured in EGM-2 media at 37° C. were lysed with lysis buffer (25 mM Tris-HCl, 0.5% Triton X-100, 200 mM NaCl, 2 mM EDTA, phosphatase and protease inhibitors; Roche Applied Science). The lysate solution was spun at 15,000 g for 15 min and the supernatant was collected. The recombinant streptococcal collagen-like protein Scl2.28CL was expressed and characterized following the methods introduced by Mohs et al. (J. Biol. Chem. 282, 29757-29765 (2007)).
SDS-PAGE staining and imaging. Proteins were resolved on NuPAGE® Novex 4-12% bis-tris gels under denaturating conditions using an XCell SureLock™ Mini-Cell electrophoresis system (Life Technologies). […] The fluorescence intensities of the protein bands were quantified using GE ImageQuant™ TL software. After fluorescence imaging, all gels were further stained with coomassie brilliant blue (CB) G-250 (Bio-Rad) for 2-3 hr followed by washing, and imaging under white light illumination using a Gel Doc EQ system (BioRad).

CF-GGG-(GPO)9 [CF(GPO)9]
staining of cell lysate protein bands: no protein band was visualized
